From ChEMBL document CHEMBL5463724, “Data for DCP probe VZ185” (2023)
Activity calls are given as the source filed them.

Experiments:
Format in all cases: functional, cell-based
[1] = tested on: A204; assay: Cell viability (A204 cells) (CellTiterGlo); details: Homo sapiens
[2] = molecular target: T1, Bromodomain-containing protein 7 (Homo sapiens, UniProt Q9NPI1); assay: Degradation of BRD7 in RI-1 cells (8 h) (Western Blot degradation assay)
T1 sequence (Q9NPI1 whole entry): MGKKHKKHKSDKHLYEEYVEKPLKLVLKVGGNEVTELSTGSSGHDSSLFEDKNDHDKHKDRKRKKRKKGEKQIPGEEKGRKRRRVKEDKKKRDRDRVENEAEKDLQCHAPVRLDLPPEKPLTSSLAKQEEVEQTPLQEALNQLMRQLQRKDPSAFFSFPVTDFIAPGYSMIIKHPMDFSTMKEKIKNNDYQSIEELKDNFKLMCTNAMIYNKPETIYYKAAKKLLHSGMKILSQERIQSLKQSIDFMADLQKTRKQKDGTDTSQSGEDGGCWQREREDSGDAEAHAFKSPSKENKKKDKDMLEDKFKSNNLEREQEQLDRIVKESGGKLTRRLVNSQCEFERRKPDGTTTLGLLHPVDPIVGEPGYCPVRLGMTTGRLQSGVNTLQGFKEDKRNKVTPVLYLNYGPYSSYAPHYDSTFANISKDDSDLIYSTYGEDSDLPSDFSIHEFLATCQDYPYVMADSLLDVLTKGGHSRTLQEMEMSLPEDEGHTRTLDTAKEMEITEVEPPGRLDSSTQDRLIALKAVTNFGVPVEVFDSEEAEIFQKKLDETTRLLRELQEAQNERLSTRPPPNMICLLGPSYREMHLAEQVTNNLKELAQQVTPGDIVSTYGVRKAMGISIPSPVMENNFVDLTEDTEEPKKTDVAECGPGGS

[3] = tested on: EOL1; assay: Cell viability (EOL-1 cells) (CellTiterGlo); details: Homo sapiens

COc1cc(-c2cn(C)c(=O)c3cnccc23)cc(OC)c1CN1CCN(CCCCCOc2cc(-c3scnc3C)ccc2CNC(=O)[C@@H]2C[C@@H](O)CN2C(=O)[C@@H](NC(=O)C2(F)CC2)C(C)(C)C)CC1
active: EC50 [1] 39.8 nM | DC50 [2] 4.5 nM | EC50 [3] 3.4 nM
